The test addresses FP receptor (Homo sapiens (Human), UniProt P43088). Briefly: In vitro test of inhibition of human FP receptor activity (PGF2α-induced calcium flux in FP-expressing CHEM1 cells). It counts as cell-based. Conditions: PGF2α 2 nM, some mean values of multiple determinations. Summed up:
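FP antagonism in FP-expressing CHEM1 cells loaded with Fluo-8. Compound preincubated 10 min at 37° C, then receptor stimulated with 2 nM (final) PGF2α in calcium-free Tyrode with 2 mM CaCl2.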

Chain of FP receptor (P43088 whole entry): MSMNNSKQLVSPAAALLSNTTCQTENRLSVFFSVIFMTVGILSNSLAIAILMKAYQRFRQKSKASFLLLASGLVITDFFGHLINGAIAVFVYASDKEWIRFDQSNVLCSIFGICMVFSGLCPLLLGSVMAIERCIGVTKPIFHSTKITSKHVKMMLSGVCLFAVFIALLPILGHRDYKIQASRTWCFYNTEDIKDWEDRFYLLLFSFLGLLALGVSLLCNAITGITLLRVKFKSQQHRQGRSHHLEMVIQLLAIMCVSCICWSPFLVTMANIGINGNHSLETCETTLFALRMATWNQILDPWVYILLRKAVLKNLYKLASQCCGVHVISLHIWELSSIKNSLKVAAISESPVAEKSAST

In the case of `Cc1c(N2CCCCC2)nc2ccc(Br)cc2c1C(=O)NCC(CCC(=O)O)c1ccccc1OC(F)(F)F` (single isomer, unassigned; (+)) [Example 128, (+)-5-({[6-Bromo-3-methyl-2-(piperidin-1-yl)quinolin-4-yl]carbonyl}amino)-4-[2-(trifluoromethoxy)phenyl]pentanoic acid], the IC50 was determined as 3.8 nM. The figure for `Cc1c(N2CCCC2)nc2ccc(Br)cc2c1C(=O)NCC(CCC(=O)O)c1ccccc1OC(F)(F)F` (single isomer, unassigned; (+)) [Example 131, (+)-5-({[6-Bromo-3-methyl-2-(pyrrolidin-1-yl)quinolin-4-yl]carbonyl}amino)-4-[2-(trifluoromethoxy)phenyl]pentanoic acid] is 9.8 nM; for `Cc1c(N2CCCC(F)(F)C2)nc2ccc(Br)cc2c1C(=O)NCC(CCC(=O)O)c1ccccc1OC(F)(F)F` (single isomer, unassigned; (+)) [Example 134, (+)-5-({[6-Bromo-2-(3,3-difluoropiperidin-1-yl)-3-methylquinolin-4-yl]carbonyl}amino)-4-[2-(trifluoromethoxy)phenyl]pentanoic acid] it is 4.9 nM.

In the case of `Cc1c(N2CCCCCC2)nc2ccc(Br)cc2c1C(=O)NCC(CCC(=O)O)c1ccccc1OC(F)(F)F` (single isomer, unassigned; (+)) [Example 137, (+)-5-({[2-(Azepan-1-yl)-6-bromo-3-methylquinolin-4-yl]carbonyl}amino)-4-[2-(trifluoromethoxy)phenyl]pentanoic acid], the IC50 turned out to be 3.8 nM.

On to `Cc1c(N2CCCCC2)nc2ccc(Br)cc2c1C(=O)NCC(CCC(=O)O)c1cccc(F)c1Cl` (single isomer, unassigned; (+)) [Example 143, (+)-5-({[6-Bromo-3-methyl-2-(piperidin-1-yl)quinolin-4-yl]carbonyl}amino)-4-(2-chloro-3-fluorophenyl)pentanoic acid], for which the IC50 stood at 9.3 nM.

As for `Cc1c(N2CCCCC2)nc2ccc(Br)cc2c1C(=O)NCC(CCC(=O)O)c1c(Cl)ccc(F)c1F` (single isomer, unassigned; (+)) [Example 146, (+)-5-({[6-Bromo-3-methyl-2-(piperidin-1-yl)quinolin-4-yl]carbonyl}amino)-4-(6-chloro-2,3-difluorophenyl)pentanoic acid], the IC50 was 22 nM. The figure for `Cc1ccc(F)cc1C(CCC(=O)O)CNC(=O)c1c(C)c(N2CCCCC2)nc2ccc(Br)cc12` (single isomer, unassigned; (+)) [Example 149, (+)-5-({[6-Bromo-3-methyl-2-(piperidin-1-yl)quinolin-4-yl]carbonyl}amino)-4-(5-fluoro-2-methylphenyl)pentanoic acid] is 13 nM. With `Cc1c(N2CCCCC2)nc2ccc(Br)cc2c1C(=O)NCC(CCC(=O)O)c1c(F)cccc1C(F)(F)F` (single isomer, unassigned; (+)) [Example 162, (+)-5-({[6-Bromo-3-methyl-2-(piperidin-1-yl)quinolin-4-yl]carbonyl}amino)-4-[2-fluoro-6-(trifluoromethyl)phenyl]pentanoic acid], the IC50 is 42 nM.

As for `Cc1c(N2CCCC2)nc2ccc(Br)cc2c1C(=O)NCC(CCC(=O)O)c1c(F)cccc1C(F)(F)F` (single isomer, unassigned; (+)) [Example 164, (+)-5-({[6-Bromo-3-methyl-2-(pyrrolidin-1-yl)quinolin-4-yl]carbonyl}amino)-4-[2-fluoro-6-(trifluoromethyl)phenyl]pentanoic acid], the IC50 was determined as 80 nM. The figure for `Cc1c(N2CCCC(F)(F)C2)nc2ccc(Br)cc2c1C(=O)NCC(CCC(=O)O)c1c(F)cccc1C(F)(F)F` (single isomer, unassigned; (+)) [Example 168, (+)-5-({[6-Bromo-2-(3,3-difluoropiperidin-1-yl)-3-methylquinolin-4-yl]carbonyl}amino)-4-[2-fluoro-6-(trifluoromethyl)phenyl]pentanoic acid] is 90 nM; for `Cc1c(N2CCCCC2)nc2ccc(Br)cc2c1C(=O)NCC(CCC(=O)O)c1c(Cl)ccc(Cl)c1Cl` (single isomer, unassigned; (+)) [Example 172, (+)-5-({[6-Bromo-3-methyl-2-(piperidin-1-yl)quinolin-4-yl]carbonyl}amino)-4-(2,3,6-trichlorophenyl)pentanoic acid] it is 41 nM. The figure for `Cc1c(N2CCCC(F)(F)C2)nc2ccc(Br)cc2c1C(=O)NCC(CCC(=O)O)c1c(Cl)ccc(Cl)c1Cl` (single isomer, unassigned; (+)) [Example 178, (+)-5-({[6-Bromo-2-(3,3-difluoropiperidin-1-yl)-3-methylquinolin-4-yl]carbonyl}amino)-4-(2,3,6-trichlorophenyl)pentanoic acid] is 56 nM. The figure for `Cc1c(N2CCCCC2)nc2ccc(Br)cc2c1C(=O)NCC(CCC(=O)O)c1c(F)cccc1OC(F)F` (single isomer, unassigned; (+)) [Example 184, (+)-5-({[6-Bromo-3-methyl-2-(piperidin-1-yl)quinolin-4-yl]carbonyl}amino)-4-[2-(difluoromethoxy)-6-fluorophenyl]pentanoic acid] is 13 nM; for `Cc1c(N2CCCC(F)C2)nc2ccc(Br)cc2c1C(=O)NCC(CCC(=O)O)c1ccccc1Cl` (single isomer, unassigned; (+)) [Example 187, (+)-5-[({6-Bromo-2-[3-fluoropiperidin-1-yl]-3-methylquinolin-4-yl}carbonyl)amino]-4-(2-chlorophenyl)pentanoic acid] it is 24 nM; for `Cc1c(N2CCCC(F)C2)nc2ccc(Br)cc2c1C(=O)NCC(CCC(=O)O)c1ccccc1Cl` (single isomer, unassigned; (+)) [Example 188, (+)-5-[({6-Bromo-2-[3-fluoropiperidin-1-yl]-3-methylquinolin-4-yl}carbonyl)amino]-4-(2-chlorophenyl)pentanoic acid] it is 6.1 nM. In the case of `Cc1c(N2CCCC(F)C2)nc2ccc(Br)cc2c1C(=O)NCC(CCC(=O)O)c1ccccc1C(F)(F)F` (single isomer, unassigned; (+)) [Example 189, (+)-5-[({6-Bromo-2-[3-fluoropiperidin-1-yl]-3-methylquinolin-4-yl}carbonyl)amino]-4-[2-(trifluoromethyl)phenyl]pentanoic acid], the IC50 worked out at 25 nM. On to `Cc1c(N2CCCC(F)C2)nc2ccc(Br)cc2c1C(=O)NCC(CCC(=O)O)c1ccccc1C(F)(F)F` (single isomer, unassigned; (+)) [Example 190, (+)-5-[({6-Bromo-2-[3-fluoropiperidin-1-yl]-3-methylquinolin-4-yl}carbonyl)amino]-4-[2-(trifluoromethyl)phenyl]pentanoic acid], for which the IC50 stood at 11 nM. The figure for `CCC1CCCN(c2nc3ccc(Br)cc3c(C(=O)NCC(CCC(=O)O)c3ccccc3C(F)(F)F)c2C)C1` (single isomer, unassigned; (+)) [Example 193, (+)-5-[({6-Bromo-2-[3-ethylpiperidin-1-yl]-3-methylquinolin-4-yl}carbonyl)amino]-4-[2-(trifluoromethyl)phenyl]pentanoic acid] is 0.62 nM.
